Assay results taken from patent US8003785B2 (Takeda Pharmaceutical Company Limited, priority 2008, dated 2011).

These molecules were tested against T1, PLK1 (Homo sapiens, UniProt P53350) (assay: Biochemical Characterization Assay: HTRF kinase assay, GST-PLK1 phosphorylation of GST-p53). Settings: GST-PLK1, GST-p53 substrate, ATP.
T1 construct: Full-length, active GST-PLK1 is purified from Sf9 insect cells; made in house; host or cells: Sf9 insect cells
Experimental: Biochemical Characterization Assay
Full-length, active GST-PLK1 is purified from Sf9 insect cells, and full-length GST-p53 is purified from E. coli. Anti-phospho p53 antibody is from Cell Signaling Technology. Europium-conjugated anti-rabbit antibody is from PerkinElmer Life and Analytical Sciences. APC-conjugated anti-GST antibody is from Prozyme.
Six microliters of GST-PLK1 (3 ug/mL) in Kinase Assay Buffer are then added and the solution incubated at 37° C. for 35 minutes. Six microliters of solution containing 43 mM EDTA to stop the reaction and a 1:600 dilution of anti-phospho-p53 antibody in 20 mM HEPES pH 7, 50 mM NaCl, and 0.5 mg/mL BSA (Antibody Binding Buffer) are added and the solution incubated at 37° C. for 30 minutes. […] The HTRF signal is read on an Envision reader from PerkinElmer Life and Analytical Sciences.

T1 sequence (P53350 whole entry): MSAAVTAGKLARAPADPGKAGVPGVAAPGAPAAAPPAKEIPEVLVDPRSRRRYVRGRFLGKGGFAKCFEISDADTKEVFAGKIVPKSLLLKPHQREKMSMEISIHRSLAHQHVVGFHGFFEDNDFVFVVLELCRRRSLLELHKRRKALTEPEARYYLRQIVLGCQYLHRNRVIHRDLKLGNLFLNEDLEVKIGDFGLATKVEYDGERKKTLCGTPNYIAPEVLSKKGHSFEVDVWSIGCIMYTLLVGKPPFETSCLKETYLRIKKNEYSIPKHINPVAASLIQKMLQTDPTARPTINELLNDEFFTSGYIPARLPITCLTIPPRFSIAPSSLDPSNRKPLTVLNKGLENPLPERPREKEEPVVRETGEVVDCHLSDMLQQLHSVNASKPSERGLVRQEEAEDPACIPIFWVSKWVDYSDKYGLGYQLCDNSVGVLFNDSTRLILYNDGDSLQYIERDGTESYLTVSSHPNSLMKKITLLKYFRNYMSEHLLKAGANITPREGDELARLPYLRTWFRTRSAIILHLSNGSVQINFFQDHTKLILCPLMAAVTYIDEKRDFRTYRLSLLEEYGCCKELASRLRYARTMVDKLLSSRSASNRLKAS

| Structure (SMILES) | IC50 [nM] |
| --- | --- |
| CN1C(=O)C(F)(F)CN(C2CCC2)c2nc(Nc3ccc(C(=O)N4CCC(N)CC4)cc3)ncc21 [Example I-15, 2-[4-(4-amino-piperidine-1-carbonyl)-phenylamino]-9-cyclobutyl-7,7-difluoro-5-methyl-5,7,8,9-tetrahydro-pyrimido[4,5-b][1,4]diazepin-6-one] | 51 to 500 |
| COCCNC(=O)c1ccc(Nc2ncc3c(n2)N(C2CCCC2)CC(F)(F)C(=O)N3C)c(OC)c1 [Example I-28, 4-(9-cyclopentyl-7,7-difluoro-5-methyl-6-oxo-6,7,8,9-tetrahydro-5H-pyrimido[4,5-b][1,4]diazepin-2-ylamino)-3-methoxy-N-(2-methoxy-ethyl)-benzamide] | 1 to 50 |
| COCCCNC(=O)c1ccc(Nc2ncc3c(n2)N(C2CCCC2)CC(F)(F)C(=O)N3C)c(OC)c1 [Example I-29, 4-(9-cyclopentyl-7,7-difluoro-5-methyl-6-oxo-6,7,8,9-tetrahydro-5H-pyrimido[4,5-b][1,4]diazepin-2-ylamino)-3-methoxy-N-(3-methoxy-propyl)-benzamide] | 1 to 50 |
| COc1cc(C(=O)NCCO)ccc1Nc1ncc2c(n1)N(C1CCCC1)CC(F)(F)C(=O)N2C [Example I-30, 4-(9-cyclopentyl-7,7-difluoro-5-methyl-6-oxo-6,7,8,9-tetrahydro-5H-pyrimido[4,5-b][1,4]diazepin-2-ylamino)-N-(2-hydroxy-ethyl)-3-methoxy-benzamide] | 1 to 50 |
| COc1cc(C(=O)NCC(F)(F)F)ccc1Nc1ncc2c(n1)N(C1CCCC1)CC(F)(F)C(=O)N2C [Example I-31, 4-(9-cyclopentyl-7,7-difluoro-5-methyl-6-oxo-6,7,8,9-tetrahydro-5H-pyrimido[4,5-b][1,4]diazepin-2-ylamino)-3-methoxy-N-(2,2,2-trifluoro-ethyl)-benzamide] | 1 to 50 |
| COc1cc(C(=O)NCC2CCCCC2)ccc1Nc1ncc2c(n1)N(C1CCCC1)CC(F)(F)C(=O)N2C [Example I-32, N-cyclohexylmethyl-4-(9-cyclopentyl-7,7-difluoro-5-methyl-6-oxo-6,7,8,9-tetrahydro-5H-pyrimido[4,5-b][1,4]diazepin-2-ylamino)-3-methoxy-benzamide] | 51 to 500 |
| COc1cc(C(=O)NCc2ccsc2)ccc1Nc1ncc2c(n1)N(C1CCCC1)CC(F)(F)C(=O)N2C [Example I-33, 4-(9-cyclopentyl-7,7-difluoro-5-methyl-6-oxo-6,7,8,9-tetrahydro-5H-pyrimido[4,5-b][1,4]diazepin-2-ylamino)-3-methoxy-N-thiophen-3-ylmethyl-benzamide] | 51 to 500 |
| COc1cc(C(=O)NCc2ccoc2)ccc1Nc1ncc2c(n1)N(C1CCCC1)CC(F)(F)C(=O)N2C [Example I-34, 4-(9-cyclopentyl-7,7-difluoro-5-methyl-6-oxo-6,7,8,9-tetrahydro-5H-pyrimido[4,5-b][1,4]diazepin-2-ylamino)-N-furan-3-ylmethyl-3-methoxy-benzamide] | 1 to 50 |
| COc1cc(C(=O)NCc2ccccc2)ccc1Nc1ncc2c(n1)N(C1CCCC1)CC(F)(F)C(=O)N2C [Example I-35, N-benzyl-4-(9-cyclopentyl-7,7-difluoro-5-methyl-6-oxo-6,7,8,9-tetrahydro-5H-pyrimido[4,5-b][1,4]diazepin-2-ylamino)-3-methoxy-benzamide] | 51 to 500 |
| COc1cc(C(=O)NCc2ccc(C(F)(F)F)cc2)ccc1Nc1ncc2c(n1)N(C1CCCC1)CC(F)(F)C(=O)N2C [Example I-36, 4-(9-cyclopentyl-7,7-difluoro-5-methyl-6-oxo-6,7,8,9-tetrahydro-5H-pyrimido[4,5-b][1,4]diazepin-2-ylamino)-3-methoxy-N-(4-trifluoromethyl-benzyl)-benzamide] | 500 to 5000 |
| COc1cc(C(=O)Nc2ccccc2)ccc1Nc1ncc2c(n1)N(C1CCCC1)CC(F)(F)C(=O)N2C [Example I-38, 4-(9-cyclopentyl-7,7-difluoro-5-methyl-6-oxo-6,7,8,9-tetrahydro-5H-pyrimido[4,5-b][1,4]diazepin-2-ylamino)-3-methoxy-N-phenyl-benzamide] | 51 to 500 |

The remaining lines, values ahead:

| IC50 [nM] | Structure (SMILES) |
| --- | --- |
| 1 to 50 | CN1CCC(NC(=O)c2ccc(Nc3ncc4c(n3)N(C3CCC3)CC(F)(F)C(=O)N4C)cc2)CC1 [Example I-16, 4-(9-cyclobutyl-7,7-difluoro-5-methyl-6-oxo-6,7,8,9-tetrahydro-5H-pyrimido[4,5-b][1,4]diazepin-2-ylamino)-N-(1-methyl-piperidin-4-yl)-benzamide] |
| 1 to 50 | CN1C(=O)C(F)(F)CN(C2CCC2)c2nc(Nc3ccc(C(=O)NC4CCOCC4)cc3)ncc21 [Example I-17, 4-(9-cyclobutyl-7,7-difluoro-5-methyl-6-oxo-6,7,8,9-tetrahydro-5H-pyrimido[4,5-b][1,4]diazepin-2-ylamino)-N-(tetrahydro-pyran-4-yl)-benzamide] |
| 1 to 50 | CN(C)CCNC(=O)c1ccc(Nc2ncc3c(n2)N(C2CCC2)CC(F)(F)C(=O)N3C)cc1 [Example I-18, 4-(9-cyclobutyl-7,7-difluoro-5-methyl-6-oxo-6,7,8,9-tetrahydro-5H-pyrimido[4,5-b][1,4]diazepin-2-ylamino)-N-(2-dimethylamino-ethyl)-benzamide] |
| 1 to 50 | CN(C)CCCNC(=O)c1ccc(Nc2ncc3c(n2)N(C2CCC2)CC(F)(F)C(=O)N3C)cc1 [Example I-19, 4-(9-cyclobutyl-7,7-difluoro-5-methyl-6-oxo-6,7,8,9-tetrahydro-5H-pyrimido[4,5-b][1,4]diazepin-2-ylamino)-N-(3-dimethylamino-propyl)-benzamide] |
| 1 to 50 | COc1cc(C(N)=O)ccc1Nc1ncc2c(n1)N(C1CCCC1)CC(F)(F)C(=O)N2C [Example I-23, 4-(9-cyclopentyl-7,7-difluoro-5-methyl-6-oxo-6,7,8,9-tetrahydro-5H-pyrimido[4,5-b][1,4]diazepin-2-ylamino)-3-methoxy-benzamide] |
| 1 to 50 | CNC(=O)c1ccc(Nc2ncc3c(n2)N(C2CCCC2)CC(F)(F)C(=O)N3C)c(OC)c1 [Example I-24, 4-(9-cyclopentyl-7,7-difluoro-5-methyl-6-oxo-6,7,8,9-tetrahydro-5H-pyrimido[4,5-b][1,4]diazepin-2-ylamino)-3-methoxy-N-methyl-benzamide] |
| 1 to 50 | COc1cc(C(=O)NC(C)C)ccc1Nc1ncc2c(n1)N(C1CCCC1)CC(F)(F)C(=O)N2C [Example I-25, 4-(9-cyclopentyl-7,7-difluoro-5-methyl-6-oxo-6,7,8,9-tetrahydro-5H-pyrimido[4,5-b][1,4]diazepin-2-ylamino)-N-isopropyl-3-methoxy-benzamide] |
| 1 to 50 | COc1cc(C(=O)NC2CC2)ccc1Nc1ncc2c(n1)N(C1CCCC1)CC(F)(F)C(=O)N2C [Example I-26, 4-(9-cyclopentyl-7,7-difluoro-5-methyl-6-oxo-6,7,8,9-tetrahydro-5H-pyrimido[4,5-b][1,4]diazepin-2-ylamino)-N-cyclopropyl-3-methoxy-benzamide] |
| 1 to 50 | COc1cc(C(=O)NC2CCCCC2)ccc1Nc1ncc2c(n1)N(C1CCCC1)CC(F)(F)C(=O)N2C [Example I-27, N-cyclohexyl-4-(9-cyclopentyl-7,7-difluoro-5-methyl-6-oxo-6,7,8,9-tetrahydro-5H-pyrimido[4,5-b][1,4]diazepin-2-ylamino)-3-methoxy-benzamide] |
